This assay concerns the target SOS1 and KRAS G12D (protein-protein interaction) (Homo sapiens, UniProt Q07889). The assay can be described thus: KRAS::SOS1 AlphaScreen binding assay. The method, then:
KRAS::SOS1 AlphaScreen Binding Assay
Low IC50 values are indicative of high potency of the SOS1 inhibitor compound in this assay setting:
10 nM (final assay concentration) KRAS G12D, 10 μM (final assay concentration) GDP and 5 nM (final assay concentration) GST-SOS1 are mixed in assay buffer prior to use and kept at room temperature.
AlphaLSA Glutathione Acceptor Beads and AlphaScreen Streptavidin Donor Beads are mixed in assay buffer at a concentration of 10 μg/mL (final assay concentration) each prior to use and kept at room temperature.
Compounds are diluted to a final start concentration of 100 μM and are tested in duplicate. […] For compound a start concentration of 100 μM, 150 nL of compound solution is transferred per well in 11 concentrations in duplicate with serial 1:5 dilutions.
The assay is run using a fully automated robotic system in a darkened room below 100 Lux. 10 μL of KRAS::SOS1 GDP mix is added into columns 1-24 to the 150 nL of compound solution (final dilution in the assay 1:100, final DMSO concentration 1%).
After a 30 minute incubation time 5 μL of bead mix is added into columns 1-23. Plates are kept at room temperature in a darkened incubator. After a further 60 minute incubation, the signal is measured using a PerkinElmer Envision HTS Multilabel Reader using the AlphaScreen specifications from PerkinElmer. Each plate contains the following controls: • diluted DMSO+KRAS::SOS1 GDP mix+bead mix • diluted DMSO+KRAS::SOS1 GDP mix Result Calculation:
IC50 values are calculated and analyzed using a 4 parametric logistic model.
On the technique in general: Bead proximity is the source of the signal in Alpha formats.

[1] abbreviates: assay buffer without EDTA (values not marked with an asterisk), read-out: IC50 (SOS1).
[2] abbreviates: assay buffer with 100 μM EDTA (values marked with an asterisk), read-out: IC50 (SOS1).
[3] abbreviates: read-out: IC50 (SOS1), assay buffer without EDTA (values not marked with an asterisk).
Where [4] appears, read: values marked with * in the table, read-out: IC50 (SOS1).

Where two headings read alike, the source gives them in different places.

What is called IC50 is the point on the concentration scale where inhibition reaches its midpoint.

As for `COc1cc2nc(C)nc(N[C@H](C)c3cccc(C(F)(F)CO)c3)c2cc1O[C@H]1CCOC1` [I-1], the IC50 under setting [1] stood at 3 nM.

As for `COc1cc2nc(C)nc(N[C@H](C)c3cccc(S(C)(=O)=O)c3)c2cc1O[C@H]1CCOC1` [I-3], the IC50 under setting [2] turned out to be 47 nM.

Consider `COc1cc2nc(C)nc(N[C@H](C)c3cccc(C)c3)c2cc1O[C@H]1CCN(C(C)=O)C1` [I-4], for which, under setting [1], the IC50 was determined as 30 nM.

As for `COc1cc2nc(C)nc(N[C@H](C)c3cccc(C(F)(F)F)c3)c2cc1O[C@H]1CCN(C(C)=O)C1` [I-5], the IC50 under setting [1] stood at 13 nM.

For the molecule `COc1cc2nc(C)nc(N[C@H](C)c3cc(N)cc(C(F)(F)F)c3)c2cc1O[C@H]1CCN(C(C)=O)C1` [I-7], the IC50 under setting [1] is 3 nM.

`CC(=O)N1CC[C@H](Oc2cc3c(N[C@H](C)c4cc(N)cc(C(F)(F)F)c4)nc(C)nc3cc2F)C1` [I-8]: under setting [1], the IC50 is 6 nM.

On to `CC(=O)N1CC[C@H](Oc2cc3c(N[C@H](C)c4cc(N)cc(C(F)(F)F)c4)nc(C)nc3cc2C)C1` [I-9], for which the IC50 under setting [1] was 3 nM.

Consider `Cc1nc(N[C@H](C)c2cc(N)cc(C(F)(F)F)c2)c2cc(O[C@H]3CCOC3)c(C)cc2n1` [I-10], for which, under setting [1], the IC50 is 7 nM.

For the molecule `COc1cc2nc(C)nc(N[C@H](C)c3cccc(C4(O)COC4)c3)c2cc1O[C@H]1CCOC1` [I-16], the IC50 under setting [1] was determined as 38 nM.

`COc1cc2nc(C)nc(N[C@H](C)c3cccc(C4(O)COC4)c3)c2cc1C1=CCN(C(C)=O)CC1` [I-17]: the IC50 under setting [1] is 34 nM.

For the molecule `COc1c(C2(O)CCN(C(C)=O)CC2)cc2c(N[C@H](C)c3cccc(C(F)(F)F)c3F)nc(C)nc2c1C` [I-20], the IC50 under setting [1] stood at 7 nM.

With `Cc1nc(N[C@H](C)c2cccc(C(F)(F)F)c2)c2cc(C3(O)CCS(=O)(=O)CC3)ccc2n1` [I-21], the IC50 under setting [1] was 20 nM.

Regarding `CC(=O)N1CC2(C1)CC(O)(c1cc(C)c3nc(C)nc(N[C@H](C)c4cccc(C(F)(F)F)c4)c3c1)C2` [I-42], the IC50 under setting [1] turned out to be 26 nM.

As to `CC(=O)N1CCC(O)(c2cc(C)c3nc(C)nc(N[C@H](C)c4cccc(C(F)(F)F)c4)c3c2)CC1` [I-43], under setting [1], the IC50 came out at 8 nM.

With `COc1cc2nc(C)nc(N[C@H](C)c3cccc(C(F)(F)F)c3)c2cc1C1(O)CCN(C(C)=O)CC1` [I-44], under setting [1], the IC50 stood at 4 nM.

`COc1cc2nc(C)nc(N[C@H](C)c3cccc(C(F)(F)F)c3F)c2cc1C1(O)CCN(C(C)=O)CC1` [I-45]: the IC50 under setting [1] amounted to 2 nM.

With `COCC(=O)N1CCC(O)(c2cc3c(N[C@H](C)c4cccc(C(F)(F)F)c4F)nc(C)nc3cc2OC)CC1` [I-46], the IC50 under setting [1] was 4 nM.

Turning to `COCC(=O)N1CCC(O)(c2cc3c(N[C@H](C)c4cccc(C(F)(F)F)c4)nc(C)nc3cc2OC)CC1` [I-47], the IC50 under setting [1] came out at 5 nM.

As for `CC(=O)N1CCC(O)(c2ccc3nc(C)nc(N[C@H](C)c4cccc(C(F)(F)F)c4)c3c2)CC1` [I-48], the IC50 under setting [1] worked out at 15 nM.

Take `COCC(=O)N1CCC(O)(c2ccc3nc(C)nc(N[C@H](C)c4cccc(C(F)(F)F)c4)c3c2)CC1` [I-49]: the IC50 under setting [1] was determined as 9 nM.

For the molecule `Cc1nc(N[C@H](C)c2cccc(C(F)(F)F)c2)c2cc(C3(O)CCN(C(=O)N(C)C)CC3)ccc2n1` [I-50], the IC50 under setting [1] amounted to 23 nM.

For the molecule `CC(=O)N1CCC2(CC1)CC(O)(c1ccc3nc(C)nc(N[C@H](C)c4cccc(C(F)(F)F)c4)c3c1)C2` [I-51], the half-inhibitory concentration (IC50) under setting [1] came to 23 nM.

On to `CC(=O)N1CCC(O)(c2ccc3nc(C)nc(N[C@H](C)c4cccc(C)c4)c3c2)CC1` [I-52], for which, under setting [1], the IC50 is 14 nM.

For `CCC(=O)N1CC[C@H](Oc2cc3c(N[C@H](C)c4cc(N)cc(C(F)(F)F)c4)nc(C)nc3cc2C)C1` [I-53], the IC50 under setting [1] is 3 nM.

With `Cc1nc(N[C@H](C)c2cc(N)cc(C(F)(F)F)c2)c2cc(O[C@H]3CCN(C(=O)C4CC4)C3)c(C)cc2n1` [I-54], the IC50 under setting [1] came to 4 nM.

Consider `Cc1nc(N[C@H](C)c2cccc(C(F)(F)F)c2)c2cc([C@]3(O)CC[C@H](O)CC3)cc(C)c2n1` [I-55], for which the IC50 came out at 20 nM.

Molecule `COc1cc2nc(C)nc(N[C@H](C)c3cccc(C(F)(F)F)c3)c2cc1[C@]1(O)CC[C@@H](O)CC1` [I-57] displayed an IC50 of 10 nM.

In the case of `COc1cc2nc(C)nc(N[C@H](C)c3cccc(C(F)(F)F)c3F)c2cc1[C@]1(O)CC[C@@H](O)CC1` [I-58], the IC50 is 6 nM.

`Cc1nc(N[C@H](C)c2cccc(C(F)(F)F)c2)c2cc([C@]3(O)CC[C@H](O)CC3)ccc2n1` [I-59] came in with an IC50 of 20 nM.

As to `Cc1nc(N[C@H](C)c2cccc(C(F)(F)F)c2)c2cc([C@]3(O)CC[C@@H](O)CC3)ccc2n1` [I-60], the IC50 came out at 10 nM.

`Cc1nc(N[C@H](C)c2cccc(C(F)(F)F)c2F)c2cc([C@]3(O)CC[C@@H](O)CC3)ccc2n1` [I-61] displayed an IC50 of 8 nM.

Take `Cc1nc(N[C@H](C)c2cccc(C(F)(F)F)c2C)c2cc(C3(O)CCC(O)CC3)ccc2n1` (stereo partly drawn) [I-63]: the IC50 under setting [3] was found to be 9 nM.

In the case of `Cc1cccc([C@@H](C)Nc2nc(C)nc3ccc([C@H]4CC[C@H](O)CC4)cc23)c1` [I-64], the IC50 under setting [2] amounted to 34 nM.

On to `Cc1nc(N[C@H](C)c2cc(N)cc(C(F)(F)F)c2)c2cc([C@H]3CC[C@H](O)CC3)ccc2n1` [I-65], for which the IC50 under setting [1] is 8 nM.

For the molecule `Cc1nc(N[C@H](C)c2cc(N)cc(C(F)(F)F)c2)c2cc([C@H]3CC[C@@H](O)CC3)ccc2n1` [I-66], under setting [1], the IC50 is 43 nM.

Regarding `CC(=O)O[C@H]1CC[C@](O)(c2ccc3nc(C)nc(N[C@H](C)c4cccc(C(F)(F)F)c4)c3c2)CC1` [I-67], under setting [1], the IC50 is 26 nM.

Turning to `COc1cc2nc(C)nc(N[C@H](C)c3cccc(C(F)(F)F)c3)c2cc1C1(O)CCC(C(=O)N(C)C[C@H](C)O)CC1` (stereo partly drawn) [I-73], the IC50 under setting [3] worked out at 41 nM.

Take `COc1cc2nc(C)nc(N[C@H](C)c3cccc(C(F)(F)F)c3)c2cc1[C@]1(O)CC[C@@H](C(=O)N(C)CCO)CC1` [I-75]: the IC50 was 7 nM.

With `COc1cc2nc(C)nc(N[C@H](C)c3cccc(C(F)(F)F)c3F)c2cc1C1(O)CCC(C(=O)N(C)C)CC1` (stereo partly drawn) [I-77], under setting [1], the IC50 turned out to be 5 nM.

Regarding `Cc1nc(N[C@H](C)c2cccc(C(F)(F)F)c2)c2cc([C@]3(O)CC[C@H](C(=O)N(C)C)CC3)ccc2n1` [I-78], the IC50 under setting [1] turned out to be 27 nM.

As to `Cc1cccc([C@@H](C)Nc2nc(C)nc3cc(C)c(-c4ccc(C(=O)N5CCOCC5)cc4)cc23)c1` [I-83], under “read-out: IC50 (SOS1)”, the IC50 came out at 44 nM.

As for `COc1cc2nc(C)nc(N[C@H](C)c3cc(N)cc(C(F)(F)F)c3)c2cc1-c1cnn(CC(=O)N(C)C)c1` [I-84], where the note is “read-out: IC50 (SOS1)”, the IC50 was 6 nM.

On to `Cc1nc(N[C@H](C)c2cccc(C(F)(F)F)c2)c2cc(-c3cnn(CC(=O)N(C)C)c3)ccc2n1` [I-85], for which the IC50 under setting [4] was found to be 41 nM.

For `Cc1nc(N[C@H](C)c2cc(N)cc(C(F)(F)F)c2)c2cc(-c3cnn(CC(=O)N(C)C)c3)ccc2n1` [I-86], where the note is “read-out: IC50 (SOS1)”, the IC50 was 8 nM.

For the molecule `Cc1cccc([C@@H](C)Nc2nc(C)nc3ccc(-c4cc5n(n4)CCC(=O)N5)cc23)c1` [I-87], the IC50 under setting [4] came to 18 nM.

With `Cc1nc(N[C@H](C)c2cccc(C(F)(F)F)c2)c2cc(-c3cc4n(n3)CCC(=O)N4)ccc2n1` [I-88], under setting [4], the IC50 came to 30 nM.

Take `Cc1nc(N[C@H](C)c2cccc(C(F)(F)F)c2)c2cc(-c3cc4n(n3)CCC(=O)N4)c(C)cc2n1` [I-89]: the IC50 under setting [4] was 34 nM.

Consider `Cc1nc(N[C@H](C)c2cc(N)cc(C(F)(F)F)c2)c2cc(-c3cc4n(n3)CCC(=O)N4)ccc2n1` [I-90], for which the IC50 (read-out: IC50 (SOS1)) came to 7 nM.

In the case of `Cc1cccc([C@@H](C)Nc2nc(C)nc3ccc(-c4ccc(=O)[nH]c4)cc23)c1` [I-99], under setting [4], the IC50 was 29 nM.

As to `Cc1nc(N[C@H](C)c2cccc(C(F)(F)F)c2)c2cc(-c3ccc(=O)[nH]c3)ccc2n1` [I-100], the IC50 under setting [4] is 48 nM.

Take `COc1cc2nc(C)nc(N[C@H](C)c3cccc(C)c3)c2cc1-c1ccc(=O)[nH]c1` [I-101]: the IC50 under setting [4] was determined as 28 nM.

Regarding `Cc1nc(N[C@H](C)c2cc(N)cc(C(F)(F)F)c2)c2cc(-c3ccc(=O)[nH]c3)ccc2n1` [I-102], the half-maximal inhibitory concentration (IC50) (read-out: IC50 (SOS1)) came to 9 nM.

Consider `Cc1cccc([C@@H](C)Nc2nc(C)nc3ccc(-c4ccc(=O)n(C)c4)cc23)c1` [I-103], for which the IC50 under setting [4] is 46 nM.

Turning to `Cc1nc(N[C@H](C)c2cc(N)cc(C(F)(F)F)c2)c2cc(-c3ccc(=O)n(C)c3)ccc2n1` [I-104], the IC50 under setting [4] was found to be 6 nM.

`Cc1cccc([C@@H](C)Nc2nc(C)nc3cc(C)c(-c4ccc(=O)n(C)c4)cc23)c1` [I-105]: under setting [4], the IC50 turned out to be 36 nM.

On to `Cc1nc(N[C@H](C)c2cc(N)cc(C(F)(F)F)c2)c2cc(-c3ccc(=O)n(C)c3)c(C)cc2n1` [I-107], for which the IC50 under setting [4] was determined as 4 nM.

With `COc1cc2nc(C)nc(N[C@H](C)c3cc(N)cc(C(F)(F)F)c3)c2cc1-c1ccc(=O)n(C)c1` [I-108], the IC50 (read-out: IC50 (SOS1)) was 8 nM.

Regarding `Cc1nc(N[C@H](C)c2cccc(C(F)(F)F)c2)c2cc(-c3ccc(=O)n(C)c3)c(C)cc2n1` [I-109], under “read-out: IC50 (SOS1)”, the IC50 came to 25 nM.

For the molecule `COc1cc2nc(C)nc(N[C@H](C)c3cc(N)cc(C(F)(F)F)c3F)c2cc1-c1ccc(=O)n(C)c1` [I-110], for the setting “read-out: IC50 (SOS1)”, the IC50 came to 8 nM.

For `Cc1nc(N[C@H](C)c2cccc(C(F)(F)F)c2)c2cc(C3CCOCC3)ccc2n1` [I-153], the IC50 under setting [1] amounted to 33 nM.
